# From patent publication US20080009418A1, “Selective Inhibitors” (Alchemia LTD., priority 2004, published 2008)
# Assays:
# Human μ-opioid (MOP) = target: T1, Human μ-opioid (MOP) (Homo sapiens, UniProt P35372); assay: Radioligand binding, human μ-opioid (MOP) membranes, FlashPlate, [3H]-Naloxone; conditions: compound at 10 μM, [3H]-Naloxone
# T1 construct: purchased Perkin Elmer Biosignal
# Outline: (§1)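 Cloned human receptor membranes were coated onto FlashPlate wells and incubated with radioligand and compound (added from a 0.5 mM DMSO daughter plate) for 1 hour at room temperature in the dark. Scintillation counting gave percent inhibition, with DMSO defining total and reference ligand defining non-specific binding.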
# Human neurokinin (NK1) = target: T2, Human neurokinin (NK1) (Homo sapiens, UniProt P25103); assay: Radioligand binding, human neurokinin NK1 membranes, filtration, [125I]-Substance P; conditions: compound at 10 μM, [125I]-Substance P
# T2 construct: purchased Perkin Elmer Biosignal
# Outline: (§2)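 Membranes from cloned human receptors were incubated with compound and radioligand for 1 hour at room temperature. Bound ligand was collected on 0.3% PEI-soaked filters, washed with cold 50 mM Tris-HCl pH 7.4, and counted by scintillation. Percent inhibition was computed against DMSO totals and reference-ligand nonspecific wells.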
# [1] = target: T3, Human melanin-concentrating hormone (MCH1) (Homo sapiens, UniProt Q99705); assay: Radioligand binding, human melanin-concentrating hormone MCH1 membranes, FlashPlate, [125I]-S36057; conditions: compound at 10 μM
# T3 construct: purchased Perkin Elmer Biosignal
# Outline: as §1
# Mouse urotensin (mUR2) = target: T4, Mouse urotensin (mUR2) (Mus musculus, UniProt Q8VIH9); assay: Radioligand binding, mouse urotensin mUR2 membranes, FlashPlate, [125I]-Urotensin II; conditions: compound at 10 μM, [125I]-Urotensin II
# T4 construct: purchased Perkin Elmer Biosignal
# T4 sequence (Q8VIH9 1-385): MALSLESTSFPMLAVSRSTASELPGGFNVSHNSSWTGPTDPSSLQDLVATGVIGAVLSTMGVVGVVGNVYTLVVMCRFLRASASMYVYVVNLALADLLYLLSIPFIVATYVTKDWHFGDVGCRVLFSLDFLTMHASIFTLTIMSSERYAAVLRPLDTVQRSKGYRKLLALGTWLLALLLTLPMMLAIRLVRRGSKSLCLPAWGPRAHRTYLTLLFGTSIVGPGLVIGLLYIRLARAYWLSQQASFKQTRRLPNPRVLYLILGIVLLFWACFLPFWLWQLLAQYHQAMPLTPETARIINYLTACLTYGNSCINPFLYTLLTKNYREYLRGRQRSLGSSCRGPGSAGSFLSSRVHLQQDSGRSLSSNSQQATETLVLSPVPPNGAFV
# Outline: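 Cloned mouse urotensin (mUR2) receptor membranes from Perkin Elmer Biosignal were immobilized in FlashPlate microplates using a proprietary coating. Each well got 19.5 μl buffer, then 0.5 μl of DMSO, reference ligand, or compound. Adding 5 μl of [125I]-Urotensin II, diluted to 5× final concentration in binding buffer, started binding. Plates were sealed with TopSeal-A and incubated 1 hour at room temperature in the dark. Wells were counted for 30 seconds each on a TopCount after a 60-second delay, and percentage inhibition was calculated.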
# Human opioid (ORL1) = target: T5, Human opioid (ORL1) (Homo sapiens, UniProt P41146); assay: Radioligand binding, human opioid ORL1 membranes, FlashPlate, [125I]-Nociceptin; conditions: compound at 10 μM, [125I]-Nociceptin
# T5 construct: purchased Perkin Elmer Biosignal
# Outline: as §1
# Human δ-opioid (DOP) = target: T6, Human δ-opioid (DOP) (Homo sapiens, UniProt P41143); assay: Radioligand binding, human δ-opioid (DOP) membranes, FlashPlate, [3H]-Bremazocine; conditions: compound at 10 μM, [3H]-Bremazocine
# T6 construct: purchased Perkin Elmer Biosignal
# Outline: as §1
# [2] = target: T7, Human neuropeptide Y (NPY-Y1) (Homo sapiens, UniProt P25929); assay: Radioligand binding, human neuropeptide Y NPY-Y1 membranes, FlashPlate, [125I]-PYY; conditions: compound at 10 μM, [125I]-PYY
# T7 construct: purchased Perkin Elmer Biosignal
# T7 sequence (P25929 1-384): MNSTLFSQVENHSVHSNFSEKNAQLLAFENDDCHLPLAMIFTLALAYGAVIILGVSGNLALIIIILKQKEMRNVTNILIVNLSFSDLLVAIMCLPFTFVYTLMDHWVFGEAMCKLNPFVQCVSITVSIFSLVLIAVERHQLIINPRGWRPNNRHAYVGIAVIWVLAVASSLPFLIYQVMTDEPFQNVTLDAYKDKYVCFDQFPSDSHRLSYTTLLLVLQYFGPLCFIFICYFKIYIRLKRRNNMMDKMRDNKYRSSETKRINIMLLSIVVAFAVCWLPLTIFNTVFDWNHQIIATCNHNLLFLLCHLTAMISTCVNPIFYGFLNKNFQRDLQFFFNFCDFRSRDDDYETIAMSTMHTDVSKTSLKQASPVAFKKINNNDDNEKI
# Outline: as §1
# Human melanocortin (MC5) = target: T8, Human melanocortin (MC5) (Homo sapiens, UniProt P33032); assay: Radioligand binding, human melanocortin MC5 membranes, FlashPlate, [125I]-NDP-αMSH; conditions: compound at 10 μM, [125I]-NDP-αMSH
# T8 construct: purchased Perkin Elmer Biosignal
# Outline: as §1
# Human Melanocortin (MC3) = target: T9, Human Melanocortin (MC3) (Homo sapiens, UniProt P41968); assay: Radioligand binding, human melanocortin MC3 membranes, FlashPlate, [125I]-NDP-αMSH; conditions: compound at 10 μM, [125I]-NDP-αMSH
# T9 construct: purchased Perkin Elmer Biosignal
# Outline: as §1
# Human Melanocortin (MC4) = target: T10, Human Melanocortin (MC4) (Homo sapiens, UniProt P32245); assay: Radioligand binding, human melanocortin MC4 membranes, FlashPlate, [125I]-NDP-αMSH; conditions: compound at 10 μM, [125I]-NDP-αMSH
# T10 construct: purchased Perkin Elmer Biosignal
# Outline: as §1
# Human κ-Opioid (KOP) = target: T11, Human κ-Opioid (KOP) (Homo sapiens, UniProt P41145); assay: Radioligand binding, human κ-opioid (KOP) membranes, filtration, [3H]-Diprenorphine; conditions: compound at 10 μM, [3H]-Diprenorphine
# T11 construct: purchased Perkin Elmer Biosignal
# Outline: as §2
# T3 sequence (Q99705 whole entry): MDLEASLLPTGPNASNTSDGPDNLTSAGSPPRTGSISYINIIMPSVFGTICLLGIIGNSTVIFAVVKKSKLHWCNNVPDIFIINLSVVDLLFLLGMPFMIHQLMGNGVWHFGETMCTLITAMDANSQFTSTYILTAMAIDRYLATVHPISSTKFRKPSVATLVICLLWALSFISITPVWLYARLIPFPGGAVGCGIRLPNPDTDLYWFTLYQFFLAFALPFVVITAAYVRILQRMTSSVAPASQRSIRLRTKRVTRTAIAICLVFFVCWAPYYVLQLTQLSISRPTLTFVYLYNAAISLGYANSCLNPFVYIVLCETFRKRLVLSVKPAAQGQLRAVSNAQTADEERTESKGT
# T9 sequence (P41968 whole entry): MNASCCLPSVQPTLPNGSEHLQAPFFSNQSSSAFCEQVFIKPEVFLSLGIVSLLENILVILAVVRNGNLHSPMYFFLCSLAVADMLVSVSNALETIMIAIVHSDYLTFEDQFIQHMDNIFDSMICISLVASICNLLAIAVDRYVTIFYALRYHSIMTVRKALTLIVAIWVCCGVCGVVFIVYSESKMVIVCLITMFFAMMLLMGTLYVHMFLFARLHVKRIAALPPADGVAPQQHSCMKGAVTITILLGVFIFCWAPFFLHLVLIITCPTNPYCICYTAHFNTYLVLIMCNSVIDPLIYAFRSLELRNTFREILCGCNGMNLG
# T2 sequence (P25103 whole entry): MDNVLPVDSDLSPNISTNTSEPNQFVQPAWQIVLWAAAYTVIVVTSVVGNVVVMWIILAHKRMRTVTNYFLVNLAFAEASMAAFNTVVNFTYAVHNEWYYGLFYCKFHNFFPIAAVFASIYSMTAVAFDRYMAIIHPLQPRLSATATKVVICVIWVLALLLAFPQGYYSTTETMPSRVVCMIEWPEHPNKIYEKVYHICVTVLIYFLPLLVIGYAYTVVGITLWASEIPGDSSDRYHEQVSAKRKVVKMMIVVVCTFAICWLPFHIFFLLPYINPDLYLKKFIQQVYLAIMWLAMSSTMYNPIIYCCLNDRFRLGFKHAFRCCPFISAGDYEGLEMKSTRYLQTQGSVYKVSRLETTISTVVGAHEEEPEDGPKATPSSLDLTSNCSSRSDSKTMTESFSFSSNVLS
# T6 sequence (P41143 whole entry): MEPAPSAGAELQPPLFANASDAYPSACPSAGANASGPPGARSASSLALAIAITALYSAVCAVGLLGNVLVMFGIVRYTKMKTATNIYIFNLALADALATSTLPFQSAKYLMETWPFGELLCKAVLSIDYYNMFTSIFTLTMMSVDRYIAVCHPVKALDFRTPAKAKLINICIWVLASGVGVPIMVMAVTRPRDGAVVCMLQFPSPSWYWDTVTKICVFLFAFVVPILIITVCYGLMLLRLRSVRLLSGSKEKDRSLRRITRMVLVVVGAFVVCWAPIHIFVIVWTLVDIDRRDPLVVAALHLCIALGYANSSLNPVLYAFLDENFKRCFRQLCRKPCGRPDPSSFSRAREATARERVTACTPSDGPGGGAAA
# T10 sequence (P32245 whole entry): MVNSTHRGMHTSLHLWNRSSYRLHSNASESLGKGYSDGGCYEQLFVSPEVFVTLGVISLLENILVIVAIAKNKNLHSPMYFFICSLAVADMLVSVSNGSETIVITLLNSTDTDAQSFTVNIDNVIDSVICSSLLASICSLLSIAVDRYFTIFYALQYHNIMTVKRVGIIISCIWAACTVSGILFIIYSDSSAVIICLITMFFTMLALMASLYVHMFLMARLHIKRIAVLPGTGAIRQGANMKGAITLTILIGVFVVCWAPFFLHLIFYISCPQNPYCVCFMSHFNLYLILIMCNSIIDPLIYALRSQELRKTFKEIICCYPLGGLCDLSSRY
# T1 sequence (P35372 whole entry): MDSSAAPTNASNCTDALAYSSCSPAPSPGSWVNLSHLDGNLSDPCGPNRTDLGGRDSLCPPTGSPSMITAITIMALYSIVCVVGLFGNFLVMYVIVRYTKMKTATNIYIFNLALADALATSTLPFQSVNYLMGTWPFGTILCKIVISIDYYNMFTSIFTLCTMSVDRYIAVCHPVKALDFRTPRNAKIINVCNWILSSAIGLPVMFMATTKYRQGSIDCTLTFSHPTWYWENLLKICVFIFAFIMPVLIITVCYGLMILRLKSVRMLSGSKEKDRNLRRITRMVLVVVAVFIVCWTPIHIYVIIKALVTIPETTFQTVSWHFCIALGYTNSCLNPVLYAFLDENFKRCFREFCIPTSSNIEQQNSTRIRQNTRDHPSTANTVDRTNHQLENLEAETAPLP
# T5 sequence (P41146 whole entry): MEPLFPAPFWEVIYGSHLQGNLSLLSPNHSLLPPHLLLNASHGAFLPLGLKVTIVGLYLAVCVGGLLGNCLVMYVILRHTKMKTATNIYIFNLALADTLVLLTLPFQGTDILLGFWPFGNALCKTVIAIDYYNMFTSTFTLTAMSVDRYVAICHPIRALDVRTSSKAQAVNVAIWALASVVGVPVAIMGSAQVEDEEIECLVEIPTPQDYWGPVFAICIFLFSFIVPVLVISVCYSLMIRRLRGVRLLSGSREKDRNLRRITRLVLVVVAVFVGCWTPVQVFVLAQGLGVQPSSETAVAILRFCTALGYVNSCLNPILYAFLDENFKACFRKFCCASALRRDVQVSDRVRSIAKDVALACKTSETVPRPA
# T11 sequence (P41145 whole entry): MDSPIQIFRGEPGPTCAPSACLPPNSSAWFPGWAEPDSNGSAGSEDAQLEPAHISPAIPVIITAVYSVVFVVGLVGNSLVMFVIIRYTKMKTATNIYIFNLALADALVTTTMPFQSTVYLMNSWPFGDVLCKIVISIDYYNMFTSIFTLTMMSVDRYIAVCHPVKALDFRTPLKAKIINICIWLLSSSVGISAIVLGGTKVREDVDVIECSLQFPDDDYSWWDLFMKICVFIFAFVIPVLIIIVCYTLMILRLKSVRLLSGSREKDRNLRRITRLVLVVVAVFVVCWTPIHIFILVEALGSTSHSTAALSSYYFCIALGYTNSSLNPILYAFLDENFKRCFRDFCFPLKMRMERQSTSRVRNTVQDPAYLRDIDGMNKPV
# T8 sequence (P33032 whole entry): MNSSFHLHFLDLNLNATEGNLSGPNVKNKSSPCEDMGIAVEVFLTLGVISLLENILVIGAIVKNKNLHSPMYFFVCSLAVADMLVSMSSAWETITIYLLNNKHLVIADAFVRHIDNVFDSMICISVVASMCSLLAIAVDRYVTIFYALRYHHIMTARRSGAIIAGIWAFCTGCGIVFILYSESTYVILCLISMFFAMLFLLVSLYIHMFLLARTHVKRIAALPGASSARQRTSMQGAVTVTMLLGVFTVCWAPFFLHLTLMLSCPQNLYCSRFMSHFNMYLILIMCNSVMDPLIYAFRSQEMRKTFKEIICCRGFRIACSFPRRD
compound,measurement,setting,value
CO[C@H]1[C@H](O)[C@@H](COCc2cccc(O)c2)OC(OCc2ccc(Cl)cc2)[C@@H]1NC(=O)CNC(=N)N (stereo partly shown) [compound 155],"A7 radioligand binding, percentage inhibition",Human μ-opioid (MOP),− (“−” indicates less than 50% inhibition at 10 μM)
same,"A8 radioligand binding, percentage inhibition",Human neurokinin (NK1),− (“−” indicates less than 50% inhibition at 10 μM)
same,"A6 radioligand binding, percentage inhibition",[1]; [125I]-S36057,− (“−” indicates less than 50% inhibition at 10 μM)
same,"A11 radioligand binding, percentage inhibition",Mouse urotensin (mUR2),− (“−” indicates less than 50% inhibition at 10 μM)
same,"A10 radioligand binding, percentage inhibition",Human opioid (ORL1),− (“−” indicates less than 50% inhibition at 10 μM)
same,"A1 radioligand binding, percentage inhibition",Human δ-opioid (DOP),− (“−” indicates less than 50% inhibition at 10 μM)
same,"A9 radioligand binding, percentage inhibition",[2],− (“−” indicates less than 50% inhibition at 10 μM)
same,"A5 radioligand binding, percentage inhibition",Human melanocortin (MC5),+ (“+” indicates greater than 50% inhibition at 10 μM)
same,"A3 radioligand binding, percentage inhibition",Human Melanocortin (MC3),− (“−” indicates less than 50% inhibition at 10 μM)
same,"A4 radioligand binding, percentage inhibition",Human Melanocortin (MC4),− (“−” indicates less than 50% inhibition at 10 μM)
same,"A2 radioligand binding, percentage inhibition",Human κ-Opioid (KOP),− (“−” indicates less than 50% inhibition at 10 μM)
"NCCC(=O)NC1C(OCc2ccc(Cl)cc2)OC(COCc2ccc3ccccc3c2)C(O)C1OCc1ccc(Cl)cc1 (single isomer, unassigned) [compound 471]",A7: inhibition of radioligand binding,Human μ-opioid (MOP); human MOP membranes,− (“−” indicates less than 50% inhibition at 10 μM)
same,A8: inhibition of radioligand binding,Human neurokinin (NK1); human NK1 membranes,+ (“+” indicates greater than 50% inhibition at 10 μM)
same,A6: inhibition of radioligand binding,"[1]; [125I]-S36057, human MCH1 membranes, 10 µM",− (“−” indicates less than 50% inhibition at 10 μM)
same,A11: inhibition of radioligand binding,Mouse urotensin (mUR2); mouse mUR2 membranes,− (“−” indicates less than 50% inhibition at 10 μM)
same,A10: inhibition of radioligand binding,Human opioid (ORL1); human ORL1 membranes,− (“−” indicates less than 50% inhibition at 10 μM)
same,A1: inhibition of radioligand binding,Human δ-opioid (DOP); human DOP membranes,− (“−” indicates less than 50% inhibition at 10 μM)
same,A9: inhibition of radioligand binding,[2]; human NPY-Y1 membranes,− (“−” indicates less than 50% inhibition at 10 μM)
same,A5: inhibition of radioligand binding,Human melanocortin (MC5); human MC5 membranes,+ (“+” indicates greater than 50% inhibition at 10 μM)
same,A3: inhibition of radioligand binding,Human Melanocortin (MC3); human MC3 membranes,+ (“+” indicates greater than 50% inhibition at 10 μM)
same,A4: inhibition of radioligand binding,"Human Melanocortin (MC4); human MC4 membranes, 10 µM",− (“−” indicates less than 50% inhibition at 10 μM)
same,A2: inhibition of radioligand binding,Human κ-Opioid (KOP); human KOP membranes,− (“−” indicates less than 50% inhibition at 10 μM)
